The values that follow come from patent publication US20060030556A1, “Neurokinin-1 receptor antagonists for the treatment of conditions responsive to testosterone elevation, including testosterone deficiency” (SOLVAY PHARMACEUTICALS B.V., priority 2004, published 2006).

The nature of assay [1]: Serum testosterone in chronic psychosocial stress with concomitant Compound 1 treatment (enzyme-immunoassay). Type of assay: in vivo, tree shrews (Tupaia belangen). As to the method: (§1) The experiments were carried out using tree shrews (Tupaia belangen). Experimentally naive adult male tree shrews were obtained from the breeding colony at the German Primate Center (Göttingen, Germany). Animals were housed individually in air-conditioned facilities on a 12 hr/12 hr light/dark cycle with artificial illumination (lights on from 8:00 A.M. to 8:00 P.M.) and with free access to food and water (Fuchs E. “Tree shrews”, In: Poole T, (ed) UFAW handbook on the care and management of laboratory animals Oxford: Blackwell, 235-245, 1999). All treatments were performed during the day (activity period, lights on). Animal experiments were conducted in accordance with the European Communities Council Directive of Nov. 24, 1986 […] and were approved by the Government of Lower Saxony, Germany.
The experimental design was as follows: Animals were divided into three experimental groups: ‘Control’, ‘Stress’ and ‘Stress+Compound 1’, each consisting of six tree shrews. The experiment consisted of three different phases and lasted for six weeks (42 days). The first experimental phase went on for 7 days, during which all animals remained undisturbed and body weight was recorded daily. The second phase of the experiment was a 7-day period, during which the animals of the Stress' and the ‘Stress+Compound 1’ group were submitted to daily psychosocial conflict. For the induction of psychosocial conflict one naive male was introduced into the cage of a socially experienced male. After establishment of a clear dominant/subordinate relationship, the two animals were separated by a wire mesh barrier. […]
For determination of testosterone, 100 μl serum was two times extracted with 1 ml of diethylether by vortexing for 10 min. […] 50 μl aliquots of reconstituted extracts were then measured for concentrations of testosterone by enzyme-immunoassay as described by Kraus et al. (Physiol. Behav. 66: 855-861, 1999). […]
Serum testosterone levels were measured from blood samples collected before perfusing the animals. […]

Assay [2] deals with NK1 receptors in the tree shrew brain. Nature of the assay: Nicotine-induced emesis pilot study to establish the dose that blocks NK1 receptors in tree shrew brain. The assay is classed as in vivo, tree shrews (Tupaia belangen). Conditions: 30 min before s.c. (-)-nicotine 4 mg/kg, episodes counted over following 30 min, n=4 crossover. As to the method: as §1
Animals received the NK1 receptor antagonist Compound 1 orally. A pilot study to establish the dose of Compound 1 that blocks NK1 receptors in the tree shrew brain was conducted. The methodology used is based on the ability of NK1 receptor antagonists to block nicotine-induced vomiting in musk shrews (Tattersall et al., Neuropharmacology, 34, 1697-1699, 1995). Adult tree shrews (n=4) received either vehicle or Compound 1 in different dosage orally followed 30 minutes later by subcutaneous administration of (−)-nicotine (4 mg/kg; Sigma), and the number of emetic episodes occurring during the following 30 min was recorded. Each animal received each treatment in a crossover design, with 10 days washout period between studies. Emetic episodes were abolished by treatment with 20 mg/kg per day Compound 1, whereas lower doses, i.e. 5 or 10 mg/kg per day and vehicle were ineffective.

The mark [3] stands for this setting: 20 mg/kg/day oral for 28 days, p<0.05.

Turning to `O=C(c1cccc(C(F)(F)F)c1)N1C[C@H]2CC[C@H](N3CCOCC3)CN2C[C@H]1Cc1c[nH]c2ccccc12` [Compound 1], the “serum testosterone concentrations compared to 'Control' animals” value in assay [1] (setting [3]) is reported as “two fold increase”. Also, the “testosterone levels compared to the 'Stress' group” value in assay [1] (setting [3]) is “six times higher”. In addition, in assay [1] (Stress + Compound 1 group, 20 mg/kg/day oral for 28 days during psychosocial stress, n = 6, p<0.05 versus Control and versus Stress), the Serum testosterone concentration was 6.45 ± 2.00 *# (n = 6) ng/ml. The “emetic episodes after (-)-nicotine” value in assay [2] (5 mg/kg per day oral) is on record as “ineffective”; in assay [2] (10 mg/kg per day oral) it was “ineffective”; in assay [2] (20 mg/kg per day oral), “abolished”.
